Measured values as given in ChEMBL document CHEMBL5724914, “Linking interpersonal differences in gut microbiota composition and drug biotransformation activity” (2024).

Experiments:
[1] = (§1) The drug is tested on WLS-027 corresponding to human gut metagenome with ENA study accession number: PRJEB37062 and ENA sample accession number: ERS12561744 for biotransformation under anaerobic condition. The drug concentrations were measured over 9 timepoints collected between 0 and 24 hours of incubation by liquid-chromatography-coupled mass spectrometry (LC–MS); conditions: 2 µM
[2] = human gut metagenome, 24 h, 2 µM
[3] = human gut metagenome, 24 h, 2 µM; remark: listed apart in the source
[4] = as §1, with “Z-022” for “WLS-027”, “mouse” for “human”, “ERS12561821” for “ERS12561744”; conditions: 2 µM
[5] = as §1, with “WLS-086” for “WLS-027”, “ERS12561752” for “ERS12561744”; conditions: 2 µM
[6] = as §1, with “Z-003” for “WLS-027”, “pig” for “human”, “ERS12561803” for “ERS12561744”; conditions: 2 µM
[7] = as §1, with “WLS-069” for “WLS-027”, “ERS12561748” for “ERS12561744”; conditions: 2 µM
[8] = human gut metagenome, 24 h, 2 µM; remark: listed apart in the source
[9] = as §1, with “Z-028” for “WLS-027”, “mouse” for “human”, “ERS12561827” for “ERS12561744”; conditions: 2 µM
[10] = human gut metagenome, 24 h, 2 µM; remark: listed apart in the source
[11] = human gut metagenome, 24 h, 2 µM; remark: listed apart in the source
[12] = human gut metagenome, 24 h, 2 µM; remark: listed apart in the source
[13] = as §1, with “Z-018” for “WLS-027”, “pig” for “human”, “ERS12561817” for “ERS12561744”; conditions: 2 µM
[14] = human gut metagenome, 24 h, 2 µM; remark: listed apart in the source
[15] = as §1, with “Z-007” for “WLS-027”, “rat” for “human”, “ERS12561807” for “ERS12561744”; conditions: 2 µM
[16] = as §1, with “Z-004” for “WLS-027”, “to” for “to human gut”, “ERS12561804” for “ERS12561744”; conditions: 2 µM
[17] = as §1, with “WLS-220” for “WLS-027”, “ERS12561769” for “ERS12561744”; conditions: 2 µM
[18] = as §1, with “WLS-170” for “WLS-027”, “ERS12561762” for “ERS12561744”; conditions: 2 µM
[19] = human gut metagenome, 24 h, 2 µM; remark: listed apart in the source
[20] = as §1, with “Z-011” for “WLS-027”, “mouse” for “human”, “ERS12561811” for “ERS12561744”; conditions: 2 µM
Note: call rule not given here.

Structure (SMILES) | Bacterial Biotransformation [1] | Bacterial Biotransformation [2] | Bacterial Biotransformation [3] | Bacterial Biotransformation [4] | Bacterial Biotransformation [5] | Bacterial Biotransformation [6] | Bacterial Biotransformation [7] | Bacterial Biotransformation [8] | Bacterial Biotransformation [9] | Bacterial Biotransformation [10] | Bacterial Biotransformation [11] | Bacterial Biotransformation [12] | Bacterial Biotransformation [13] | Bacterial Biotransformation [14] | Bacterial Biotransformation [15] | Bacterial Biotransformation [16] | Bacterial Biotransformation [17] | Bacterial Biotransformation [18] | Bacterial Biotransformation [19] | Bacterial Biotransformation [20]
CC(CN1c2ccccc2Sc2ccccc21)N(C)C (stereo not given) [PROMETHAZINE] | Compound metabolized | Compound NOT metabolized | Compound NOT metabolized | Compound NOT metabolized | Compound metabolized | Compound NOT metabolized | Compound metabolized | Compound metabolized | Compound NOT metabolized | Compound NOT metabolized | Compound NOT metabolized | Compound metabolized | Compound metabolized | Compound metabolized | Compound NOT metabolized | Compound NOT metabolized | Compound metabolized | Compound metabolized | Compound metabolized | Compound NOT metabolized
OCCOCCN1CCN(C2=Nc3ccccc3Sc3ccccc32)CC1 [QUETIAPINE] | Compound metabolized | Compound NOT metabolized | Compound NOT metabolized | Compound NOT metabolized | Compound metabolized | Compound NOT metabolized | Compound NOT metabolized | Compound metabolized | Compound NOT metabolized | Compound metabolized | Compound NOT metabolized | Compound metabolized | Compound metabolized | Compound NOT metabolized | Compound NOT metabolized | Compound metabolized | Compound metabolized | Compound metabolized | Compound NOT metabolized | Compound NOT metabolized
CCC(=O)NCC[C@@H]1CCc2ccc3c(c21)CCO3 [RAMELTEON] | Compound metabolized | Compound metabolized | Compound metabolized | Compound metabolized | Compound metabolized | Compound metabolized | Compound metabolized | Compound metabolized | Compound NOT metabolized | Compound metabolized | Compound metabolized | Compound metabolized | Compound metabolized | Compound metabolized | Compound NOT metabolized | Compound metabolized | Compound metabolized | Compound metabolized | Compound metabolized | Compound NOT metabolized
CNC(=C[N+](=O)[O-])NCCSCc1ccc(CN(C)C)o1 [RANITIDINE] | Compound NOT metabolized | Compound metabolized | Compound metabolized | Compound metabolized | Compound NOT metabolized | Compound metabolized | Compound metabolized | Compound NOT metabolized | Compound metabolized | Compound NOT metabolized | Compound NOT metabolized | Compound NOT metabolized | Compound metabolized | Compound NOT metabolized | Compound NOT metabolized | Compound metabolized | Compound NOT metabolized | Compound NOT metabolized | Compound NOT metabolized | Compound metabolized
Nc1nc2ccc(OC(F)(F)F)cc2s1 [RILUZOLE] | Compound metabolized | Compound NOT metabolized | Compound metabolized | Compound metabolized | Compound metabolized | Compound metabolized | Compound metabolized | Compound metabolized | Compound NOT metabolized | Compound metabolized | Compound metabolized | Compound metabolized | Compound metabolized | Compound NOT metabolized | Compound NOT metabolized | Compound metabolized | Compound metabolized | Compound metabolized | Compound NOT metabolized | Compound metabolized

The remaining lines, values ahead:

Bacterial Biotransformation [1] | Bacterial Biotransformation [2] | Bacterial Biotransformation [3] | Bacterial Biotransformation [4] | Bacterial Biotransformation [5] | Bacterial Biotransformation [6] | Bacterial Biotransformation [7] | Bacterial Biotransformation [8] | Bacterial Biotransformation [9] | Bacterial Biotransformation [10] | Bacterial Biotransformation [11] | Bacterial Biotransformation [12] | Bacterial Biotransformation [13] | Bacterial Biotransformation [14] | Bacterial Biotransformation [15] | Bacterial Biotransformation [16] | Bacterial Biotransformation [17] | Bacterial Biotransformation [18] | Bacterial Biotransformation [19] | Bacterial Biotransformation [20] | Structure (SMILES)
Compound metabolized | Compound NOT metabolized | Compound NOT metabolized | Compound NOT metabolized | Compound metabolized | Compound metabolized | Compound metabolized | Compound metabolized | Compound metabolized | Compound metabolized | Compound metabolized | Compound metabolized | Compound metabolized | Compound NOT metabolized | Compound NOT metabolized | Compound NOT metabolized | Compound metabolized | Compound metabolized | Compound NOT metabolized | Compound metabolized | CC(C)c1nc(CN(C)C(=O)N[C@H](C(=O)N[C@@H](Cc2ccccc2)C[C@H](O)[C@H](Cc2ccccc2)NC(=O)OCc2cncs2)C(C)C)cs1 [RITONAVIR]
Compound NOT metabolized | Compound NOT metabolized | Compound NOT metabolized | Compound NOT metabolized | Compound NOT metabolized | Compound NOT metabolized | Compound NOT metabolized | Compound NOT metabolized | Compound NOT metabolized | Compound NOT metabolized | Compound NOT metabolized | Compound NOT metabolized | Compound NOT metabolized | Compound NOT metabolized | Compound NOT metabolized | Compound NOT metabolized | Compound NOT metabolized | Compound metabolized | Compound NOT metabolized | Compound NOT metabolized | CC(C)NCC(O)c1ccc(NS(C)(=O)=O)cc1 (stereo not given) [SOTALOL]
Compound metabolized | Compound NOT metabolized | Compound NOT metabolized | Compound NOT metabolized | Compound metabolized | Compound metabolized | Compound metabolized | Compound metabolized | Compound NOT metabolized | Compound metabolized | Compound NOT metabolized | Compound metabolized | Compound metabolized | Compound NOT metabolized | Compound NOT metabolized | Compound metabolized | Compound NOT metabolized | Compound metabolized | Compound NOT metabolized | Compound metabolized | CCN1CCCC1CNC(=O)c1cc(S(N)(=O)=O)ccc1OC (stereo not given) [SULPIRIDE]
